The nature of one series: in vivo. As to conditions: dog, analyte MMMDPB. As for the experimental part:
(§1) In accordance with the present invention, pharmacokinetic parameters were calculated using standard non-compartmental methods, as implemented in WinNonlin™ 4.0.1. […] The mean, SD and CV (%) were used to calculate the AUC0-t (μg·h/mL), C. (μg/ml) (the maximum observed concentration), Tmax (hours) (the time to reach that peak concentration) and Kel (the elimination rate constant) for each animal and each analyte.
(§2) AUC0-t was calculated using the linear trapezoidal rule, which employs an approximate integration formula. The area of each trapezoid was calculated, and the sum of all the areas of all the trapezoids yielded an estimate of the true area under the curve. (See, Gibaldi et al. Pharmacokinetics. 2nd Ed. Marcel Dekker, Inc., 1982; Yeh et al., A comparison of numerical integrating algorithms by trapezoidal, lagrange, and spline approximations. J. Pharmacokinet Biopharm. 6: 79 (1978), the disclosure of which is herein incorporated by reference.) Cmax and Tmax were then determined for each concentration vs. time profile. Elimination rate constant (Kel) was calculated using regression analyses on the natural log (ln) of plasma concentration values (y) versus time (x).
Blood samples were obtained pre-dose and 0.25, 0.5, 1, 2, 3, 4, 6, 9, 12, 15, 18, and 24 hours after dosing. Venous blood (˜1 mL) were drawn and collected in lithium heparin (anticoagulant). Blood samples were spun in a refrigerated centrifuge and plasma were stored at −80° C. prior to analysis. […] Calibration curves were obtained using a weighted (1/C^2) least squares linear regression analysis of peak area ratio (analyte/internal standard) versus the nominal concentration of the calibration standards. Concentrations were obtained by interpolation from the run defined calibration curve. Regressions and figures were generated by PE Sciex Analyst Version 1.2 software.
Plasma samples were thawed and subjected to solid phase extraction with 2 mL acetonitrile prior to HPLC method with Tandem Mass Spectrometry Detection. Chromatographic conditions were performed as followed: […]

Series [1] deals with seizure induced either by electroshock or pentylenetetrazole. As to conditions: mice, given by stomach tube; cited from earlier work.
The nature of series [2]: Brain concentration of DPB after oral DPB or NaDPB and IV NaDPB in Sprague-Dawley rats. It counts as in vivo. The following applies: male, oral 150 mg/kg, 48 hr. As for the experimental part:
In this study, we measured the brain concentration of DPB. Brains were collected as soon as possible after euthanasia from each rat. They were stored in a freezer at −80° C. prior to determination of DPB brain tissue concentrations. Table 6 summarizes the brain concentrations of DPB after oral administration of DPB and sodium salt of DPB in Sprague-Dawley rats.

Series [3] can be described thus: Pharmacokinetics of DPB after oral DPB or NaDPB and IV NaDPB in Beagle dogs. It counts as in vivo. The following applies: dog, in vivo, oral 75 mg/kg; for AUC(0-t): Beagle, po, 75 mg/kg. As for the experimental part: as §1, §2
We examined the delivery of DPB to the vascular compartment by administrating directly DPB and compared it with the sodium salt of DPB in dogs. This study compared the pharmacokinetics of DPB after oral administration of a single dose of DPB (75 mg/kg) or sodium salt of DPB (75 mg/kg) in Beagle dogs. Twenty-eight Beagle dogs were administered DPB and sodium salt of DPB by a single oral gavage (n=24). Blood samples were obtained pre-dose and 0.5, 1, 2, 3, 4, 6, 12, 18, 24, 36 and 48 hours after dosing. DPB was quantified in plasma using HPLC (LLOQ=0.25 μg/mL).
(§3) We calculated AUC0-t for DPB at various times (24, 36 and 48 hours) after oral administrations of DPB and sodium salt of DPB.

The nature of series [4]: Pharmacokinetics of DPB after oral DPB or NaDPB and IV NaDPB in Sprague-Dawley rats. It counts as in vivo. The following applies: rat, in vivo, oral 150 mg/kg; for AUC(0-t): Sprague-Dawley, po, 150 mg/kg. As for the experimental part: as §1, §2
We examined the delivery of DPB to the vascular compartment by administrating directly DPB and compared it with the sodium salt of DPB. This study compared the pharmacokinetics of DPB after oral administration of DPB (150 mg/kg) and sodium salt of DPB (150 mg/kg) in rats. Fifty-four rats were administered DPB and sodium salt of DPB by a single oral gavage (n=54). Blood samples were obtained (approximately 0.5 mL each) were collected following each treatment from animal via the jugular vein. Blood samplings from groups of 3 rats/sex/time point were collected at various times after dosing, in order to provide the complete time-points of pre-dose, 0, 0.5, 1, 2, 3, 4, 6, 12, 18, 24, 36 and 48 hours after dosing. Each blood sample was collected into a tube containing lithium heparin and the samples were spun in a refrigerated centrifuge. The resultant plasma was stored at −80° C. prior to analysis. DPB was quantified in plasma using HPLC (LLOQ=0.25 μg/mL).
as §3

Where [5] appears, read: Sprague-Dawley rats, female, analyte DPB in plasma.
Setting [6] is: Sprague-Dawley rats, male, analyte DPB in plasma.

Data on three compounds can be found in patent publication US8076346B2 (priority 2000, dated 2011).

Take `COCN1C(=O)NC(=O)C(c2ccccc2)(c2ccccc2)C1=O` [MMMDPB, monomethoxymethyl-5,5-diphenyl barbituric acid, reference compound]: the bioavailability in “in vivo” (Beagle, Beagle dogs, oral 30 mg/kg vs IV 15 mg/kg, read-out: F (absolute bioavailability)) is 107%; in “in vivo” (Beagle, po, 30 mg/kg, mean oral bioavailability of MMMDPB, Beagle dogs, oral 30 mg/kg, mean) it was 107%; in the series “in vivo” (Beagle, po, 30 mg/kg, oral bioavailability of MMMDPB, range, Beagle dogs, oral 30 mg/kg, range over animals), 43 to 177%.

As for `COCN1C(=O)NC(=O)C(c2ccccc2)(c2ccccc2)C1=O.[Na]` [NaMMMDPB, sodium monomethoxymethyl-5,5-diphenyl barbiturate], the bioavailability was 60% in “in vivo” (in vivo, 30 mg/kg, oral 30 mg/kg vs IV 15 mg/kg, read-out: F (absolute bioavailability)); 60% in “in vivo” (in vivo, po, 30 mg/kg, mean oral bioavailability of MMMDPB, oral 30 mg/kg, mean); 34 to 99% in the series “in vivo” (in vivo, po, 30 mg/kg, oral bioavailability of MMMDPB, range, oral 30 mg/kg, range over animals).

The term Cmax denotes the highest concentration seen after dosing. Broadly, the Tmax is the time at which the peak concentration occurs. Broadly, the half-life is the time in which the quantity being followed falls by half. The low end stands for rapid decline, the high end for slow decline. For the compound `O=C1NC(=O)C(c2ccccc2)(c2ccccc2)C(=O)N1` [DPB, 5,5-diphenyl barbituric acid, reference compound], in series [1], the protection from seizure result was “effective”. Also, the “Mean brain concentration of DPB” value in series [2] is listed as “BQL”. The AUC(0-t) in series [3] (analyte DPB in plasma, read-out: AUC0-t) stood at 222 µg·h/mL; in series [3] (analyte DPB, read-out: AUC0-24) it was 231 µg·h/mL; in series [3] (analyte DPB, read-out: AUC0-36), 234 µg·h/mL; in series [3] (analyte DPB, read-out: AUC0-48), 234 µg·h/mL; in series [4] (female, Sprague-Dawley rats, female, analyte DPB in plasma, read-out: AUC0-t) it was 1950 µg·h/mL; in series [4] (female, female, analyte DPB, read-out: AUC0-36), 1600 µg·h/mL. The AUC(0-t) in series [4] (female, female, analyte DPB, read-out: AUC0-48) was determined as 1950 µg·h/mL; in series [4] (male, Sprague-Dawley rats, male, analyte DPB in plasma, read-out: AUC0-t) it was 776 µg·h/mL; in series [4] (male, male, analyte DPB, read-out: AUC0-36), 757 µg·h/mL; in series [4] (male, male, analyte DPB, read-out: AUC0-48), 776 µg·h/mL. In addition, the values for the Cmax in series [3] (analyte DPB in plasma), in series [4] (setting [5]) and in series [4] (setting [6]) were 18700 ng/mL, 74000 ng/mL and 38300 ng/mL, respectively. For the same compound, the figures for the Tmax in series [3] (analyte DPB in plasma), in series [4] (setting [5]) and in series [4] (setting [6]) were 6.5 h, 12 h and 6 h, respectively. Further, the half-life is 4 h in series [3] (analyte DPB in plasma), 33.2 h in series [4] (setting [5]) and 6.6 h in series [4] (setting [6]).
